According to PubChem BioAssay AID504638 (National Center for Advancing Translational Sciences (NCATS), 2011):

System: mouse liver microsomes, stability LC-MS/MS, 1 uM
Experiment: Inhibitors of HPGD: Mouse Liver Microsome Profiling
Conditions: at 1 µM, active compounds read high

Cc1cc(-c2nnc3n2CCCCC3)c(C)n1-c1ccccc1
half-life: 8 min

Cc1cccc(-n2cnc3cc(C(=O)N4CCCCC4)ccc32)c1
half-life: 9 min
